Data from ChEMBL document CHEMBL1156254, “4-Pregnen-21-ol-3,20-dione-21-(4-bromobenzenesulfonate) (NSC 88915) and related novel steroid derivatives as tyrosyl-DNA phosphodiesterase (Tdp1) inhibitors” (J Med Chem, 2009).
Activity calls are given as the source filed them. The rule behind the calls is not given here.

Molecular target: DNA repair nuclease/redox regulator APEX1 (Homo sapiens) (UniProt P27695)
Test: Inhibition of human APE1 up to 100 uM

Chain of DNA repair nuclease/redox regulator APEX1 (Homo sapiens) (P27695 whole entry): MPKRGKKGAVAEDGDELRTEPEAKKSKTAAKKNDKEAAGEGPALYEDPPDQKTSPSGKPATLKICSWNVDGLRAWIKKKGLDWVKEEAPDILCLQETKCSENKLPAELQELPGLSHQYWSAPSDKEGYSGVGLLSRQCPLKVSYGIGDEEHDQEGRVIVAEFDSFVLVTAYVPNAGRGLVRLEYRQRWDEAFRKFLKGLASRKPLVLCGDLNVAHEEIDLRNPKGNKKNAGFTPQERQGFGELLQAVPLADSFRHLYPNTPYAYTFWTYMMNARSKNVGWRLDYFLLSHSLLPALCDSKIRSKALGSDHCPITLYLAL

| inhibition | SMILES |
| --- | --- |
| inactive | C[C@]12CC[C@H]3[C@@H](CCC4=CC(=O)CC[C@@]43C)[C@@H]1CC[C@@H]2C(=O)COS(=O)(=O)c1ccc(Br)cc1 |

Molecular target: Tyrosyl-DNA phosphodiesterase 1 (Homo sapiens) (UniProt Q9NUW8)
Sequence (Q9NUW8 whole entry): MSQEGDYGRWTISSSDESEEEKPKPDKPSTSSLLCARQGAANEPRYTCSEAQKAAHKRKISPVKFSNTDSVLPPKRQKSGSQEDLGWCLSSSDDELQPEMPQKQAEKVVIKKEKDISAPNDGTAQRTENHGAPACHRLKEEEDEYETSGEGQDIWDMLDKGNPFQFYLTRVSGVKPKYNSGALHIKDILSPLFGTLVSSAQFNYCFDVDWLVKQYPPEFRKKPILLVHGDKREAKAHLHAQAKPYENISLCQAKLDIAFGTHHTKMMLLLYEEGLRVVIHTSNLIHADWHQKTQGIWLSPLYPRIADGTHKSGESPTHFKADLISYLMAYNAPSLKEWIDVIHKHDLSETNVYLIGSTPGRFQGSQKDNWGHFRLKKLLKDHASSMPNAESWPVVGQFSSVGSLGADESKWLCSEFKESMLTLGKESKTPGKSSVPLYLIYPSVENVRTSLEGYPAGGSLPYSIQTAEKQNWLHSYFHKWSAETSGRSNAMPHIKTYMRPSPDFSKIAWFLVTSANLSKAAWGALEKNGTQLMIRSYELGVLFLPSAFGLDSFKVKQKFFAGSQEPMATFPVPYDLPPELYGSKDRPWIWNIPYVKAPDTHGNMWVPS
Test: Ratio of IC50 of test compound to IC50 of NSC88915 for human Tdp1 assessed as blockade of enzyme-mediated hydrolysis of phosphodiester linkage between tyrosine and 3^-end of N14Y DNA substrate by SDS-PAGE electrophoresis

| Ratio IC50 | SMILES |
| --- | --- |
| < 3 | Cc1ccc(S(=O)(=O)OCC(=O)[C@H]2CC[C@H]3[C@@H]4CCC5=CC(=O)CC[C@]5(C)[C@H]4CC[C@]23C)cc1 |
| < 3 | C[C@]12CC[C@H]3[C@@H](CCC4=CC(=O)CC[C@@]43C)[C@@H]1CC[C@@H]2C(=O)COS(=O)(=O)c1ccc(F)cc1 |

The next lines start with the molecule.

| SMILES | Ratio IC50 |
| --- | --- |
| C[C@]12CC[C@H]3[C@@H](CCC4=CC(=O)CC[C@@]43C)[C@@H]1CC[C@@H]2C(=O)COS(=O)(=O)c1ccc([N+](=O)[O-])cc1 | < 3 |
| C[C@]12CC[C@H]3[C@@H](CCC4=CC(=O)CC[C@@]43C)[C@@H]1CC[C@@H]2C(=O)COS(=O)(=O)c1ccccc1 | < 3 |
| C[C@]12CC[C@H]3[C@@H](CCC4=CC(=O)CC[C@@]43C)[C@@H]1CC[C@@H]2C(=O)COS(=O)(=O)c1ccc(Cl)cc1 | < 3 |
